Measured values taken from ChEMBL document CHEMBL1157539, “Thousands of chemical starting points for antimalarial lead identification” (Nature, 2010).

These compounds were tested on Plasmodium falciparum (assay: GSK_TCMDC: Inhibition of Plasmodium falciparum 3D7 in whole erythrocytes, using parasite LDH activity as an index of growth.). Conditions: Plasmodium falciparum, 3D7.
Assay type: functional, organism-based

Q: Which XC50 does the source give for `Oc1cc(NCCCNC2CCc3c(Cl)cc(Cl)cc32)nc2ccccc12` (stereo not given) here?
A: 934 nM

Q: `CCN1CCC(N(Cc2ccc(-c3ccc(C(F)(F)F)cc3)cc2)C(=O)Cn2c(CCc3cccc(F)c3F)cc(=O)c3c2CCC3)CC1` was tested. Which XC50 did it give?
A: 972 nM

Q: With `O=C(/C=C/c1ccc(Cl)c(Cl)c1)NCCCCCN1CCCN(C(=O)Nc2ccc(F)c(Cl)c2)CC1` as the compound, how does the XC50 read?
A: 799 nM

Q: `Cc1cc(N[C@@H](CC(C)C)C(=O)NCc2cccs2)nc(NCCc2ccccc2)n1` was tested. Which XC50 did it give?
A: 1190 nM

Q: Which XC50 does the source give for `C=CCn1c(Sc2ccc(C#N)c([N+](=O)[O-])c2)nnc1-c1cccc(Cl)c1` here?
A: 301 nM

Q: With `N=C(N)c1ccc2[nH]c(-c3cc4cc(C(=N)N)ccc4o3)cc2c1` as the compound, how does the XC50 read?
A: 179 nM

Q: With `Cc1cc(N[C@@H](CC(C)C)C(=O)NCCc2ccccc2)nc(Nc2ccccc2)n1` as the compound, how does the XC50 read?
A: 816 nM

Q: For `Cc1cc(O)nc(NC(=N)NOCc2ccccc2)n1`, which XC50 is on record?
A: 423 nM

Q: For `CN1CCCN(c2ccnc3cc4c(cc23)N(C(=O)c2ccc(Cl)cc2)CC4)CC1`, which XC50 is on record?
A: 791 nM

Q: How did the XC50 turn out when `COc1ccccc1CCN1CCC(CN(C)Cc2ccc(O)c(Cl)c2)CC1` was run?
A: 335 nM

Q: With `CC(C)(C)c1ccc2nccc(Nc3cccc(O)c3)c2c1` as the compound, how does the XC50 read?
A: 973 nM

Q: How did the XC50 turn out when `CN1CCC[C@H]1COc1ccc(CN2CC[C@H](NC(=O)c3ccc(Cl)c(Cl)c3)C2)c2ccccc12` was run?
A: 946 nM

Q: For `Cc1noc(C)c1-c1cccc(CNCc2ccc(-c3cccc(-c4nc5ccccc5[nH]4)c3)cc2)c1`, which XC50 is on record?
A: 569 nM

Q: Which XC50 does the source give for `COc1ccc(O)c(C(=O)c2cnc3c(c2)c(-c2ccc(F)cc2)c(C#N)c(=O)n3C)c1` here?
A: 792 nM

Q: Which XC50 does the source give for `CCC(CSC1CCCCC1)N(C)CCN(C)C(CC)CSC1CCCCC1` (stereo not given) here?
A: 314 nM

Q: Which XC50 does the source give for `O=C(NCCc1ccccc1)N(Cc1ccccc1-c1cccc(CNCc2ccc3c(c2)OCO3)c1)C1CCN(Cc2ccccc2)CC1` here?
A: 987 nM

Q: How did the XC50 turn out when `Cc1cc(-c2ccc(CNC3Cc4ccccc4C3)cc2)ccc1S(=O)(=O)NCCN1CCCC1` was run?
A: 704 nM

Q: `Cc1cc(=NN=Cc2cccc(F)c2)c2cc(F)ccc2[nH]1` was tested. Which XC50 did it give?
A: 478 nM

Q: `O=C(NCCc1ccccc1F)c1cc(Br)cc(N2CCN(c3ccncc3)CC2)c1` was tested. Which XC50 did it give?
A: 756 nM

Q: With `CN(C)c1ccc(CN2CCC(NC(=O)c3ccc(-c4cccc(C(F)(F)F)c4)s3)CC2)cc1` as the compound, how does the XC50 read?
A: 1150 nM

Q: For `Clc1ccc(-n2cnc3c(Nc4ccc(Oc5ccccc5)cc4)ncnc32)cc1Cl`, which XC50 is on record?
A: 747 nM

Q: `CCCCCCN1CCN(Cc2cccc(NC(=O)c3ccc(Cl)c(Cl)c3)c2)CC1` was tested. Which XC50 did it give?
A: 610 nM

Q: Which XC50 does the source give for `COc1cc2c(cc1OC)CN(CCc1ccc(NC(=O)c3cc4cc(OC(F)(F)F)ccc4[nH]3)cc1)CC2` here?
A: 535 nM

Q: For `Cc1cc(N(C)C2CCN(CC3CCCCC3)C2)nc(Nc2ccc(Cl)cc2)n1` (stereo not given), which XC50 is on record?
A: 679 nM

Q: `CCOC(=O)c1cc2c(CCN3C(=O)c4ccccc4C3=O)cn(C)c2cc1-c1ccncc1` was tested. Which XC50 did it give?
A: 583 nM

Q: With `CC(C)CNCc1cccc(-c2ccc(CN(C(=O)c3cccs3)C3CCN(Cc4ccccc4)CC3)cc2)c1` as the compound, how does the XC50 read?
A: 1010 nM

Q: With `Cc1nc2nc(N)nc(N)c2c(C)c1Cc1ccc(C(F)(F)F)cc1` as the compound, how does the XC50 read?
A: 747 nM

Q: `Cc1cc2c(cc1C(F)(F)F)N(C(=O)Nc1cc(C(=O)NCCN(C)C)cc(C(F)(F)F)c1)CC2` was tested. Which XC50 did it give?
A: 730 nM

Q: Which XC50 does the source give for `CC1CN(c2ncc(-c3ccc(CNC4Cc5ccccc5C4)cc3)cn2)CC(C)N1` (stereo not given) here?
A: 1160 nM

Q: For `COc1ccc(CNC2CCN(C)CC2)cc1-c1ccc(S(=O)(=O)NCCc2ccccn2)c(F)c1`, which XC50 is on record?
A: 819 nM

Q: `COc1ccc(S(=O)(=O)Nc2ccc(C(=O)NCc3ccc(C(F)(F)F)cc3)cc2)cc1N1CCN(CC2CC2)CC1` was tested. Which XC50 did it give?
A: 1120 nM

Q: With `c1cc2[nH]c(CCc3nc4cc(C5=NC6CCCCC6N5)ccc4[nH]3)nc2cc1C1=NC2CCCCC2N1` (stereo not given) as the compound, how does the XC50 read?
A: 230 nM

Q: `COc1ccccc1/C=C/C(=O)NCCC1CCN(CCCCCNC(=O)/C=C/c2ccc(Cl)c(Cl)c2)CC1` was tested. Which XC50 did it give?
A: 807 nM

Q: `Cc1cccc2nc(-c3ccc(-c4cccc(CN5CCN(CCO)CC5)c4)cc3)[nH]c12` was tested. Which XC50 did it give?
A: 730 nM

Q: `COc1ccc2nccc([C@@H](O)CN3CCC(NCc4ccc5sc(=O)[nH]c5c4)CC3)c2c1` was tested. Which XC50 did it give?
A: 287 nM

Q: How did the XC50 turn out when `O=C1CSc2ccc(CNC3CCN(CCc4c(F)cnc5ccc(F)cc45)CC3)nc2N1` was run?
A: 525 nM

Q: For `CCOC(=O)c1c(-c2ccccc2)nc2c(sc3ccccc32)c1O`, which XC50 is on record?
A: 375 nM

Q: How did the XC50 turn out when `Oc1ccc(-c2cc(COc3ccccc3C(F)(F)F)c(C3=CCNCC3)cc2COc2ccccc2C(F)(F)F)cc1` was run?
A: 775 nM

Q: Which XC50 does the source give for `Cc1cnc(NCC2CCCCC2)nc1N[C@@H](CO)C(=O)Nc1ccccc1` here?
A: 1100 nM

Q: Which XC50 does the source give for `CN1CCC(N(Cc2ccc(-c3cnc(NCc4ccccc4)nc3)cc2)S(=O)(=O)c2ccccc2)CC1` here?
A: 777 nM

Q: For `O=C(NC1CCC(N2CCCC(OCc3ccccc3)C2)CC1)c1cc2ccccc2[nH]1` (stereo not given), which XC50 is on record?
A: 1210 nM

Q: Which XC50 does the source give for `Cc1cc(=O)oc2c1ccc1oc(C(O)c3ccc(Cl)cc3)c(C)c12` (stereo not given) here?
A: 130 nM

Q: With `CC(C)CNCc1cccc(-c2ccc(CNC3CCN(Cc4ccccc4)CC3)cc2)c1` as the compound, how does the XC50 read?
A: 271 nM

Q: `O=C(Nc1ccon1)c1cc(-c2cccnc2)nc2ccc(Cl)cc12` was tested. Which XC50 did it give?
A: 786 nM

Q: `Cc1noc(C)c1-c1cccc(CNCc2cccc(-c3cccc(-c4nc5cc(C(F)(F)F)ccc5[nH]4)c3)c2)c1` was tested. Which XC50 did it give?
A: 456 nM

Q: `Cc1cccc(CNc2nc(C)cc(NCCC(=O)NCc3cccc(F)c3)n2)c1` was tested. Which XC50 did it give?
A: 850 nM

Q: For `Cc1cc(C(=O)Nc2ccc(OCc3ccccc3)cc2)on1`, which XC50 is on record?
A: 991 nM

Q: How did the XC50 turn out when `Cn1nc(-c2ccc(NC(=O)Nc3cc(C(F)(F)F)cc(C(F)(F)F)c3)c(F)c2)c2cnc(NCCN3CCOCC3)nc21` was run?
A: 801 nM

Q: With `COc1ccc(-c2ccc(NC(=O)c3cccc(Cl)c3)cc2)cc1CN(C)CCO` as the compound, how does the XC50 read?
A: 710 nM

Q: With `CC(C)C(NC(=O)Cc1cccc2ccccc12)C(=O)Nc1cccc(C#N)c1` (stereo not given) as the compound, how does the XC50 read?
A: 656 nM

Q: With `O=S(=O)(c1ccccc1)n1ccc2cc(Nc3ncnc4cc(C#C[C@H]5CCCN5)sc34)ccc21` as the compound, how does the XC50 read?
A: 1070 nM

Q: With `CCN(CC)CCOc1ccc(C(O)(C#CC(O)(c2ccc(Br)cc2)c2ccc(OCCN(CC)CC)cc2)c2ccc(Br)cc2)cc1` (stereo not given) as the compound, how does the XC50 read?
A: 616 nM

Q: How did the XC50 turn out when `COc1cc(NC(=O)c2sc(-c3ccc(Cl)cc3)cc2NC(=O)c2cccnc2)ccc1OCCN1CCCC1` was run?
A: 380 nM

Q: `CCCC(C)n1ccc2c3c(N)nc(N)nc3ccc21` (stereo not given) was tested. Which XC50 did it give?
A: 47.6 nM

Q: Which XC50 does the source give for `COc1ccc2c(NN=Cc3ccccn3)ccnc2c1` here?
A: 374 nM

Q: With `C[C@H](Nc1c(Nc2ccc3[nH]ccc3c2)c(=O)c1=O)C1CCCCC1` as the compound, how does the XC50 read?
A: 213 nM

Q: How did the XC50 turn out when `CC(=O)c1ccc(Nc2c(C(N)=O)cnc3cc(-c4c(C)noc4C)ccc23)cc1` was run?
A: 195 nM

Q: `CNC(=O)CNC(=O)COc1cccc2ccccc12` was tested. Which XC50 did it give?
A: 226 nM

Q: Which XC50 does the source give for `COc1ccc(Br)cc1/C=C/C(=O)Nc1ccc(C2CCCN(C)C2)cc1` (stereo not given) here?
A: 633 nM

Q: `CC(=O)NCCCCC1NC2(C(=O)N(Cc3ccc(C(C)(C)C)cc3)c3ccccc32)C2C(=O)N(C3CCCCC3)C(=O)C12` (stereo not given) was tested. Which XC50 did it give?
A: 788 nM

Q: `Cc1ccc2c(c1)C1(CC(=O)N(CCc3scnc3C)C1=O)C(=O)N2Cc1ccccc1` (stereo not given) was tested. Which XC50 did it give?
A: 1250 nM

Q: Which XC50 does the source give for `Cc1ccc2c(c1[N+](=O)[O-])N=NCC2Oc1ccccc1` (stereo not given) here?
A: 868 nM

Q: `CC1(C)NC(N)=NC(=N)N1OCOc1ccc(Cl)cc1` was tested. Which XC50 did it give?
A: 4.6 nM

Q: For `CCCCSc1ccc2nc(-c3c[nH]c4ccc(C#N)cc34)cn2c1`, which XC50 is on record?
A: 948 nM

Q: For `CCc1ccc(-n2c(=O)c3cccnc3n2CC(=O)NC2CCCC2)cc1`, which XC50 is on record?
A: 917 nM

Q: With `COc1ccc(CCN(C)CCCN2CCC(NC(=O)c3cccc4c(=O)c5ccccc5[nH]c34)CC2)cc1OC` as the compound, how does the XC50 read?
A: 695 nM

Q: With `Cc1cccc2nc(-c3cccc(-c4ccc(NC(=O)C(C)CN5CCN(C)CC5)cc4)c3)[nH]c12` (stereo not given) as the compound, how does the XC50 read?
A: 175 nM

Q: With `Oc1c(CN2CCC(Cc3ccccc3)CC2)cc(Cl)c2cccnc12` as the compound, how does the XC50 read?
A: 881 nM

Q: With `CCC(C)NC(=O)Nc1ccc(-c2cccc(-c3nc4ccccc4[nH]3)c2)cc1` (stereo not given) as the compound, how does the XC50 read?
A: 821 nM

Q: For `N=C(N)c1ccc(Nc2nc(Nc3ccc(-c4ccccc4)cc3)ncc2[N+](=O)[O-])cc1`, which XC50 is on record?
A: 804 nM
